Values after ≈ are worked out from the molar mass of the structure shown. Where a name gives a salt, the structure may show the parent alone.
Key:
physchem = conditions: water, thermodynamic from solid
[1] = plasma vs pH 7.6 buffer simulating muscular tissue; cited from earlier work

solubility (physchem) [µg/mL]	SMILES	solubilization enhancement in plasma compared to pH 7.6 buffer [1] [fold]
> 5000	CN(C)C(=O)NC1CCC(CCN2CCN(c3cccc(Cl)c3Cl)CC2)CC1 (stereo in doubt) [cariprazine hydrochloride salt, trans-N-{4-[2-[4-(2,3-dichlorophenyl)piperazine-1-yl]ethyl]cyclohexyl}-N′, N′-dimethylurea hydrochloride]	–
6 (≈ 14 µM)	CN(C)C(=O)N[C@H]1CC[C@H](CCN2CCN(c3cccc(Cl)c3Cl)CC2)CC1 [cariprazine free base, cariprazine]	–
–	Cc1cc2c(s1)Nc1ccccc1N=C2N1CCN(C)CC1.O.O=C(O)c1cc2ccccc2c(Cc2c(O)c(C(=O)O)cc3ccccc23)c1O [olanzapine pamoate]	18
